Test results reported in patent US11325899B2, “Benzofurane and benzothiophene derivatives as PGE2 receptor modulators” (IDORSIA PHARMACEUTICALS LTD, priority 2017, dated 2022).

Assays:
Type in all cases: cell-based
PTGER2 (EP2) = target: T1, PTGER2 (EP2) (Homo sapiens, UniProt P43116); assay: hEP2 b-arrestin assay (PathHunter HEK 293 PTGER2 b-arrestin cells); settings: antagonistic activity, beta-arrestin assay; read-out: hEP2 b-arr IC50
T1 construct: host or cells: HEK 293 (PathHunter PTGER2 b-arrestin cell line)
Procedure, shortened: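 PathHunter HEK293 cells with ProLink-tagged EP2 and EA-β-arrestin 2 preincubated 15 min at 37 °C with compound (10 μM-2 nM or 1 μM-0.2 nM), then stimulated 120 min with 5 μM PGE2 (EC80). β-gal complementation read by chemiluminescence; IC50 from duplicate dose-response versus DMSO.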

EP2 receptor = target: T2, EP2 receptor (Homo sapiens, UniProt P43116); assay: hEP2 cAMP assay (SF295 glioblastoma cells, HTRF cAMP, PGE2 stimulation); settings: antagonistic activity
T2 construct: SF295 glioblastoma cells express high endogenous EP2 and no EP4; host or cells: SF295 glioblastoma cells
Protocol: The antagonistic activities of the compounds of formula (I) on the EP2 and EP4 receptors are also determined in accordance with the following experimental method.
Human tumor cell lines expressing endogenously either EP4 or EP2 are used and cAMP accumulation in cells upon PGE2 stimulation is monitored. SF295 glioblastoma cells express high endogenous EP2 and no EP4, whereas BT549 breast cancer cells, express high endogenous EP4 levels and very low EP2 levels.
As a detection method for cAMP the HTRF (homogeneous time resolved fluorescence) Cisbio kit (HTRF cAMP dynamic 2 kit 20′000 tests Cisbio Cat. #62AM4PEC) was used, which is based on a competitive immunoassay using a Cryptate-labeled anti-cAMP antibody and d2-labeled cAMP. Native cAMP produced by cells or unlabeled cAMP (for the standard curve) compete with exogenously added d2-labeled cAMP (acceptor) for binding to monoclonal anti-cAMP-Eu3+ Cryptate (donor). A FRET signal (Fluorescence Resonance Energy Transfer) is obtained only if the labeled anti-cAMP antibody binds the d2 labelled cAMP, thus the specific signal (i.e. energy transfer) is inversely proportional to the concentration of cAMP in the standard or sample.
The SF295 cells (NCI/No. 0503170) are detached from culture dishes with a cell dissociation buffer (Invitrogen, 13151-014), and collected in growing medium (GM: RPM1640 (Invitrogen 21875)/10% FCS, 1% Penicilin/streptomycin). Cells are counted washed and resuspended in assay buffer (AB; HBSS, 20 mM HEPES, 0.2% BSA; 2 mM IBMX). 4′000 cells in 5 μl of AB are seeded per well of a small volume 384 well plate (black with flat bottom, Greiner 784076).
Stock solutions of test compounds are made at a concentration of 10 mM in DMSO, and serially diluted in DMSO to concentrations required for inhibition dose response curves (tested concentration range 30 μM-0.4 nM; 30 μM-0.015 nM or 1 μM-0.01 nM).
PGE2 (Cayman 14010, stock solution: 75 μM in DMSO) is used as agonist at 75 nM final concentration, corresponding to EC80.
Two point five microliters of diluted compounds are transferred into the assay plate. Plate is pre-incubated 45 minutes at room temperature. Subsequently, 2.5 microliters of PGE2 (final conc. 75 nM) are transferred into the assay plate. Plate is incubated 30 minutes at room temperature. Five μl of each donor (anti-cAMP cryptate) and acceptor (cAMP-d2) are added and the plate is incubated another hour at room temperature in the dark and then read using a BMG LABTECH PHERAstar reader (Excitation: 337 nm, Emission: 620 and 665 nm).
The obtained Delta F (fluorescence) values (665 nm/620 nM) are converted into % cAMP values using the measurements of the cAMP calibrator provided in the kit. For each compound concentration the percentage of cAMP compared to DMSO control value as average±STDEV (each concentration is measured in duplicate) is calculated.
IC50 values and curves are generated with XLfit software (IDBS) using Dose-Response One Site model 203. When compounds were measured multiple times, mean values are given.

PTGER4 (EP4) = target: T3, PTGER4 (EP4) (Homo sapiens, UniProt P35408); assay: hEP4 b-arrestin assay (PathHunter HEK 293 PTGER4 b-arrestin cells); settings: antagonistic activity, beta-arrestin assay; read-out: hEP4 b-arr IC50
T3 construct: host or cells: HEK 293 (PathHunter PTGER4 b-arrestin cell line)
Procedure, shortened: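 PathHunter HEK 293 cells expressing ProLink-tagged human EP4 and EA-β-arrestin 2, seeded 24 h before. Compounds (10 μM–2 nM or 1 μM–0.2 nM) preincubated 15 min at 37 °C, then 20 nM PGE2 (EC80) for 120 min at 37 °C. β-gal complementation luminescence read; IC50 from duplicate dose-response curves versus DMSO control.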

T3 sequence (P35408 whole entry): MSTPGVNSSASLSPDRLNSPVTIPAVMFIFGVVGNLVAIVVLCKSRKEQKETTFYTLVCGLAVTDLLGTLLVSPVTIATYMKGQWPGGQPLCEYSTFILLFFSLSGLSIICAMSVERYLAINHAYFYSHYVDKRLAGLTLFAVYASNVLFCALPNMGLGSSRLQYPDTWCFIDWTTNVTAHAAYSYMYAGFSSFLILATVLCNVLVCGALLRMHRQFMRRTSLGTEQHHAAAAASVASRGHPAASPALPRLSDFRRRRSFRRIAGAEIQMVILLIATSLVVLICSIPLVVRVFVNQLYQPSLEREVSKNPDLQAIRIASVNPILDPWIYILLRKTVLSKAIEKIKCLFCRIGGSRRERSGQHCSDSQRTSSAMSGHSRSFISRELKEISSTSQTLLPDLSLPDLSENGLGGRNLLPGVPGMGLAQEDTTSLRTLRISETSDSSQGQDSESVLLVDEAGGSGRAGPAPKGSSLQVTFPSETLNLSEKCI
T2 sequence (P43116 whole entry): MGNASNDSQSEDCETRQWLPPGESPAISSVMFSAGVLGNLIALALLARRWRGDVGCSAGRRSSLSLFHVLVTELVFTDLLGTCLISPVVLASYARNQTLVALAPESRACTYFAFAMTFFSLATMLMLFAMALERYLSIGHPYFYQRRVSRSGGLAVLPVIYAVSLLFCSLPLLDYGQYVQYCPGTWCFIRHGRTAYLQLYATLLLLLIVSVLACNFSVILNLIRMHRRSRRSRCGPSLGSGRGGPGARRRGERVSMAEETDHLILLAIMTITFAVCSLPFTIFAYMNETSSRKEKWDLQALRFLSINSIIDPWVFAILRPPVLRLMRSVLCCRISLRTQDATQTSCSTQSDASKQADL
T1 sequence (P43116 whole entry): as above

Compound	IC50 (PTGER2 (EP2)) [nM]	IC50 (EP2 receptor) [nM]	IC50 (PTGER4 (EP4)) [nM]
COc1ccc(Cl)c2c(CCNc3cc(-c4cc(C)c(C(=O)O)s4)ncn3)c(C)sc12 [Example 5, 5-{6-[2-(4-Chloro-7-methoxy-2-methyl-benzo[b]thiophen-3-yl)-ethylamino]-pyrimidin-4-yl}-3-methyl-thiophene-2-carboxylic acid]	106	177	247
Cc1cc(-c2cc(NCCc3c(C)oc4ccccc34)ncn2)sc1C(=O)O [Example 6, 3-Methyl-5-{6-[2-(2-methyl-benzofuran-3-yl)-ethylamino]-pyrimidin-4-yl}-thiophene-2-carboxylic acid]	5	4	673
CCc1oc2c(C)cc(F)cc2c1CCNc1cc(-c2cc(C)c(C(=O)O)s2)ncn1 [Example 7, 5-{6-[2-(2-Ethyl-5-fluoro-7-methyl-benzofuran-3-yl)-ethylamino]-pyrimidin-4-yl}-3-methyl-thiophene-2-carboxylic acid]	283	198	577
Cc1sc2c(C)cccc2c1CCNc1cc(-c2ccc(C(=O)O)cc2)ncn1 [Example 8, 4-{6-[2-(2,7-Dimethyl-benzo[b]thiophen-3-yl)-ethylamino]-pyrimidin-4-yl}-benzoic acid]	16	8	1170
COc1ccc(Cl)c2c(CCNc3cc(-c4ccc(C(=O)O)c(O)c4)ncn3)c(C)sc12 [Example 9, 4-{6-[2-(4-Chloro-7-methoxy-2-methyl-benzo[b]thiophen-3-yl)-ethylamino]-pyrimidin-4-yl}-2-hydroxy-benzoic acid]	118	44	1650
Cc1sc2c(C)cc(F)cc2c1CCNc1cc(-c2ccc(C(=O)O)c(O)c2)ncn1 [Example 10, 4-{6-[2-(5-Fluoro-2,7-dimethyl-benzo[b]thiophen-3-yl)-ethylamino]-pyrimidin-4-yl}-2-hydroxy-benzoic acid]	58	32	1040
CSc1cc(-c2cc(NCCc3c(C#N)sc4c(C)cc(F)cc34)ncn2)ccc1C(=O)O [Example 12, 4-{6-[2-(2-Cyano-5-fluoro-7-methyl-benzo[b]thiophen-3-yl)-ethylamino]-pyrimidin-4-yl}-2-methylsulfanyl-benzoic acid]	4	4	112
COc1cccc2c(CCNc3cc(-c4ccc(C(=O)O)c(SC)c4)ncn3)c(C#N)sc12 [Example 13, 4-{6-[2-(2-Cyano-7-methoxy-benzo[b]thiophen-3-yl)-ethylamino]-pyrimidin-4-yl}-2-methylsulfanyl-benzoic acid]	51	32	114
CCOc1cc(-c2cc(NCCc3c(C)sc4c(C)cc(F)cc34)ncn2)sc1/C=C/C(=O)O [Example 96, (E)-3-(3-Ethoxy-5-{6-[2-(5-fluoro-2,7-dimethyl-benzo[b]thiophen-3-yl)-ethylamino]-pyrimidin-4-yl}-thiophen-2-yl)-acrylic acid]	20	121	16
CCOc1cc(-c2cc(NCCc3c(C)sc4c(C)cc(F)cc34)ncn2)sc1CCC(=O)O [Example 97, 3-(3-Ethoxy-5-{6-[2-(5-fluoro-2,7-dimethyl-benzo[b]thiophen-3-yl)-ethylamino]-pyrimidin-4-yl}-thiophen-2-yl)-propionic acid]	49	120	84
COc1ccc(Cl)c2c(CCNc3cc(-c4ccc(C(=O)O)c(OC(C)C)c4)ncn3)c(C)sc12 [Example 98, 4-{6-[2-(4-Chloro-7-methoxy-2-methyl-benzo[b]thiophen-3-yl)-ethylamino]-pyrimidin-4-yl}-2-isopropoxy-benzoic acid]	55	53	340

Now from value to compound:

IC50 (PTGER2 (EP2)) [nM]	IC50 (EP2 receptor) [nM]	IC50 (PTGER4 (EP4)) [nM]	Compound
104	233	423	CCOc1cc(-c2cc(NCCc3c(C)sc4c(C)cccc34)ncn2)ccc1C(C)C(=O)O (racemic) [Example 126, rac-2-(4-{6-[2-(2,7-Dimethyl-benzo[b]thiophen-3-yl)-ethylamino]-pyrimidin-4-yl}-2-ethoxy-phenyl)-propionic acid]
5	30	238	CCCOc1cc(-c2cc(NCCc3c(C)sc4c(C)c(F)ccc34)ncn2)ccc1C(=O)O [Example 99, 4-{6-[2-(6-Fluoro-2,7-dimethyl-benzo[b]thiophen-3-yl)-ethylamino]-pyrimidin-4-yl}-2-propoxy-benzoic acid]
12	20	299	CCCOc1cc(-c2cc(NCCc3c(C)sc4c(C)cc(F)cc34)ncn2)ccc1C(=O)O [Example 100, 4-{6-[2-(5-Fluoro-2,7-dimethyl-benzo[b]thiophen-3-yl)-ethylamino]-pyrimidin-4-yl}-2-propoxy-benzoic acid]
22	85	505	CCCOc1cc(-c2cc(NCCc3c(C)sc4c(OC)ccc(Cl)c34)ncn2)ccc1C(=O)O [Example 101, 4-{6-[2-(4-Chloro-7-methoxy-2-methyl-benzo[b]thiophen-3-yl)-ethylamino]-pyrimidin-4-yl}-2-propoxy-benzoic acid]
26	54	810	CCCOc1cc(-c2cc(NCCc3c(C)sc4c(Cl)ccc(Cl)c34)ncn2)ccc1C(=O)O [Example 102, 4-{6-[2-(4,7-Dichloro-2-methyl-benzo[b]thiophen-3-yl)-ethylamino]-pyrimidin-4-yl}-2-propoxy-benzoic acid]
79	111	521	CCOc1cc(-c2cc(NCCc3c(C)sc4c(C)ccc(F)c34)ncn2)cc(C)c1C(=O)O [Example 103, 2-Ethoxy-4-{6-[2-(4-fluoro-2,7-dimethyl-benzo[b]thiophen-3-yl)-ethylamino]-pyrimidin-4-yl}-6-methyl-benzoic acid]
36	48	161	CCOc1cc(-c2cc(NCCc3c(C#N)sc4c(C)cc(F)cc34)ncn2)ccc1CC(=O)O [Example 104, (4-{6-[2-(2-Cyano-5-fluoro-7-methyl-benzo[b]thiophen-3-yl)-ethylamino]-pyrimidin-4-yl}-2-ethoxy-phenyl)-acetic acid]
33	157	58	CCOc1cc(-c2cc(NCCc3c(C)sc4c(OC)ccc(F)c34)ncn2)ccc1CC(=O)O [Example 105, (2-Ethoxy-4-{6-[2-(4-fluoro-7-methoxy-2-methyl-benzo[b]thiophen-3-yl)-ethylamino]-pyrimidin-4-yl}-phenyl)-acetic acid]
38	249	167	CCOc1cc(-c2cc(NCCc3c(C)sc4c(C)ccc(F)c34)ncn2)ccc1CC(=O)O [Example 107, (2-Ethoxy-4-{6-[2-(4-fluoro-2,7-dimethyl-benzo[b]thiophen-3-yl)-ethylamino]-pyrimidin-4-yl}-phenyl)-acetic acid]
